In patent US8906929B2, “Inhibitors of human immunodeficiency virus replication” (priority 2012, dated 2014) one finds EC50 data, which are given here for 20 compounds.

The term pEC50 denotes −log10 of the EC50, conventionally taken in molar units.

pEC50: −log10 of the molar value.

In the assay the test system is recombinant NL-Rluc virus. The assay can be described thus: Inhibition of HIV replication (NL-RLuc virus in MT-2 cells, luciferase readout). Type of assay: cell-based. The conditions noted are these: Human immunodeficiency virus 1, MT2, 120 h, 5 days of incubation, 10% FBS.
Take `Cc1nc2cc3nn2c(c1[C@H](OC(C)(C)C)C(=O)O)N1CCC(C)(/C=C/C=C/CCc2ccccc2-c2cccc-3c2)CC1` [Example 40, (2S)-2-(tert-Butoxy)-2-[(23E,25E)-4,27-dimethyl-1,5,7,8-tetraazahexacyclo[25.2.2.1^6,^9.1^10,^14.0^2,^7.0^15,^20]tritriaconta-2,4,6(33),8,10(32),11,13, 15(20), 16,18,23,25-dodecaen-3-yl]acetic acid]: the pEC50 was 7.47. For `Cc1nc2cc3nn2c(c1[C@H](OC(C)(C)C)C(=O)O)N1CCC(C)(CCCCCCc2ccccc2-c2cccc-3c2)CC1` [Example 41, (2S)-2-(tert-Butoxy)-2-{4,27-dimethyl-1,5,7,8-tetraazahexacyclo[25.2.2.1^6,^9.1^10,^14.0^2,^7.0^15,^20]tritriaconta-2,4,6(33),8,10(32), 11,13,15(20),16,18-decaen-3-yl}acetic acid], the pEC50 is 6.74. Then `Cc1nc2cc3nn2c(c1[C@H](OC(C)(C)C)C(=O)O)N1CCC(C)(/C=C/C=C\COc2ccc(Cl)cc2-c2cccc-3c2)CC1` [Example 42, (2S)-2-(tert-Butoxy)-2-[(23Z,25E)-17-chloro-4,27-dimethyl-21-oxa-1,5,7,8-tetraazahexacyclo[25.2.2.1^6,^9.1^10,^14.0^2,^7.0^15,^20]tritriaconta-2,4,6(33),8,10(32), 11, 13, 15(20),16,18,23,25-dodecaen-3-yl]acetic acid], with 7.46.

As for `Cc1nc2cc3nn2c(c1[C@H](OC(C)(C)C)C(=O)O)N1CCC(C)(/C=C/C=C/COc2ccc(Cl)cc2-c2cccc-3c2)CC1` [Example 43, (2S)-2-(tert-Butoxy)-2-[(23E,25E)-17-chloro-4,27-dimethyl-21-oxa-1,5,7,8-tetraazahexacyclo[25.2.2.1^6,^9.1^10,^14.0^2,^7.0^15,^20]tritriaconta-2,4,6(33),8,10(32), 11, 13, 15(20),16,18,23,25-dodecaen-3-yl]acetic acid], the pEC50 was 6.87. The figure for `Cc1nc2cc3nn2c(c1[C@H](OC(C)(C)C)C(=O)O)N1CCC(C)(CCCCCOc2ccc(Cl)cc2-c2cccc-3c2)CC1` [Example 44, (2S)-2-(tert-Butoxy)-2-{17-chloro-4,27-dimethyl-21-oxa-1,5,7,8-tetraazahexacyclo[25.2.2.1^6,^9.1^10,^14.0^2,^7.0^15,^20]tritriaconta-2,4, 6(33), 8, 10(32), 11, 13, 15 (20),16,18-decaen-3-yl}acetic acid] is 7.39; for `Cc1nc2cc3nn2c(c1[C@H](OC(C)(C)C)C(=O)O)N1CCC(C)(/C=C/CCCOc2ccc(Cl)cc2-c2cccc-3c2)CC1` [Example 45, (2S)-2-(tert-Butoxy)-2-[(25E)-17-chloro-4,27-dimethyl-21-oxa-1,5,7,8-tetraazahexacyclo[25.2.2.1^6,^9.1^10,^14.0^2,^7.0^15,^20]tritriaconta-2,4,6(33),8,10(32),11,13,15(20),16,18,25-undecaen-3-yl]acetic acid] it is 7.48; for `Cc1nc2cc3nn2c(c1[C@H](OC(C)(C)C)C(=O)O)N1CCC(C)(CC1)OCCCCCc1ncccc1-c1cccc-3c1` [Example 46, (2S)-2-(tert-Butoxy)-2-{4,27-dimethyl-26-oxa-1,5,7,8,19-pentaazahexacyclo[25.2.2.1^6,^9.1^10,^14.0^2,^7.0^15,^20]tritriaconta-2,4,6(33),8,10(32),11,13,15(20),16,18-decaen-3-yl}acetic acid] it is 8.00.

As for `Cc1nc2cc3nn2c(c1[C@H](OC(C)(C)C)C(=O)O)N1CCC(C)(CC1)OC/C=C\COc1cc(F)ccc1-c1cccc-3c1` [Example 47, (2S)-2-(tert-Butoxy)-2-[(23Z)-18-fluoro-4,2,7-dimethyl-21,26-dioxa-1,5,7,8-tetraazahexacyclo[25.2.2.1^6,^9.1^10,^14.0^2,^7.0^15,^20]tritriaconta-2,4,6(33),8,10(32),11,13,15(20),16,18,23-undecaen-3-yl]acetic acid], the pEC50 is 7.85. The figure for `Cc1nc2cc3nn2c(c1[C@H](OC(C)(C)C)C(=O)O)N1CCC(C)(CC1)OC/C=C/COc1cc(F)ccc1-c1cccc-3c1` [Example 48, (2S)-2-(tert-Butoxy)-2-[(23E)-18-fluoro-4,2,7-dimethyl-21,26-dioxa-1,5,7,8-tetraazahexacyclo[25.2.2.1^6,^9.1^10,^14.0^2,^7.0^15,^20]tritriaconta-2,4,6(33),8,10(32),11,13,15(20),16,18,23-undecaen-3-yl]acetic acid] is 7.96.

Consider `Cc1nc2cc3nn2c(c1[C@H](OC(C)(C)C)C(=O)O)N1CCC(C)(CC1)OCCCCOc1cc(F)ccc1-c1cccc-3c1` [Example 49, (2S)-2-(tert-Butoxy)-2-{18-fluoro-4,27-dimethyl-21,26-dioxa-1,5,7,8-tetraazahexacyclo[25.2.2.1^6,^9.1^10,^14.0^2,^7.0^15,^20]tritriaconta-2,4,6(33),8,10(32),11,13,15(20),16,18-decaen-3-yl}acetic acid], for which the pEC50 was 8.05.

On to `Cc1nc2cc3nn2c(c1[C@H](OC(C)(C)C)C(=O)O)N1CCC(C)(CC/C=C/CCc2ccncc2-c2cccc-3c2)CC1` [Example 50, (2S)-2-(tert-Butoxy)-2-[(23E)-4,27-dimethyl-1,5,7,8,17-pentaazahexacyclo[25.2.2.1^6,^9.1^10,^14.0^2,^7.0^15,^20]tritriaconta-2,4,6(33),8,10(32),11,13,15(20),16,18,23-undecaen-3-yl]acetic acid], for which the pEC50 is 8.22. The figure for `Cc1nc2cc3nn2c(c1[C@H](OC(C)(C)C)C(=O)O)N1CCC(C)(CC/C=C\CCc2ccncc2-c2cccc-3c2)CC1` [Example 51, (2S)-2-(tert-Butoxy)-2-[(23Z)-4,27-dimethyl-1,5,7,8,17-pentaazahexacyclo[25.2.2.1^6,^9.1^10,^14.0^2,^7.0^15,^20]tritriaconta-2,4,6(33),8,10(32),11,13,15(20),16,18,23-undecaen-3-yl]acetic acid] is 8.22; for `Cc1nc2cc3nn2c(c1[C@H](OC(C)(C)C)C(=O)O)N1CCC(C)(CCCCCCc2ccncc2-c2cccc-3c2)CC1` [Example 52, (2S)-2-(tert-Butoxy)-2-{4,27-dimethyl-1,5,7,8,17-pentaazahexacyclo[25.2.2.1^6,^9.1^10,^14.0^2,^7.0^15,^20]tritriaconta-2,4,6(33),8,10(32),11,13,15(20),16,18-decaen-3-yl}acetic acid] it is 8.30; for `Cc1ccc2c(c1)-c1cccc(c1)-c1cc3nc(C)c([C@H](OC(C)(C)C)C(=O)O)c(n3n1)N1CCC(C)(CC1)OC/C=C/C[C@H](C)O2` [Example 53, (2S)-2-(tert-Butoxy)-2-[(22S,^24E)-4,17,22,28-tetramethyl-21,27-dioxa-1,5,7,8-tetraazahexacyclo[26.2.2.1^6,^9.1^10,^14.0^2,^7.0^15,^20]tetratriaconta-2,4,6(34),8,10(33),11,13,15(20),16,18,24-undecaen-3-yl]acetic acid] it is 8.00.

For the compound `Cc1ccc2c(c1)-c1cccc(c1)-c1cc3nc(C)c([C@H](OC(C)(C)C)C(=O)O)c(n3n1)N1CCC(C)(CC1)OC/C=C\C[C@H](C)O2` [Example 54, (2S)-2-(tert-Butoxy)-2-[(22S,24Z)-4,17,22,28-tetramethyl-21,27-dioxa-1,5,7,8-tetraazahexacyclo[26.2.2.1^6,^9.1^10,^14.0^2,^7.0^15,^20]tetratriaconta-2,4,6(34),8,10(33),11,13,15(20),16,18,24-undecaen-3-yl]acetic acid], the pEC50 is 6.89. Then `Cc1ccc2c(c1)-c1cccc(c1)-c1cc3nc(C)c([C@H](OC(C)(C)C)C(=O)O)c(n3n1)N1CCC(C)(CC1)OCCCC[C@H](C)O2` [Example 55, (2S)-2-(tert-Butoxy)-2-[(22S)-4,17,22,28-tetramethyl-21,27-dioxa-1,5,7,8-tetraazahexacyclo[26.2.2.1^6,^9.1^10,^14.0^2,^7.0^15,^20]tetratriaconta-2,4,6(34), 8, 10(33), 11, 13, 15 (20),16,18-decaen-3-yl]acetic acid], with 7.85; and `Cc1nc2cc3nn2c(c1[C@H](OC(C)(C)C)C(=O)O)N1CCC(C)(CC1)OCC=C[C@@H](C)Oc1ccncc1-c1cccc-3c1` [Example 56, (2S)-2-(tert-Butoxy)-2-[(22R)-4,22,27-trimethyl-21,26-dioxa-1,5,7,8,17-pentaazahexacyclo[25.2.2.1^6,^9.1^10,^14.0^2,^7.0^15,^20]tritriaconta-2,4,6(33),8,10(32), 11, 13, 15 (20),16,18,23-undecaen-3-yl]acetic acid], with 6.45. Then `Cc1nc2cc3nn2c(c1[C@H](OC(C)(C)C)C(=O)O)N1CCC(C)(CC1)OCC=C[C@H](C)Oc1ccncc1-c1cccc-3c1` [Example 57, (2S)-2-(tert-Butoxy)-2-[(22S)-4,22,27-trimethyl-21,26-dioxa-1,5,7,8,17-pentaazahexacyclo[25.2.2.1^6,^9.1^10,^14.0^2,^7.0^15,^20]tritriaconta-2,4,6(33),8,10(32), 11, 13, 15(20),16,18,23-undecaen-3-yl]acetic acid], with 6.52. The figure for `Cc1ccc2c(c1)-c1cccc(c1)-c1cc3nc(C)c([C@H](OC(C)(C)C)C(=O)O)c(n3n1)N1CCC(C)(CC1)OCC=C[C@@H](C)O2` [Example 58, (2S)-2-(tert-Butoxy)-2-[(22R)-4,17,22,2,7-tetramethyl-21,26-dioxa-1,5,7,8-tetraazahexacyclo[25.2.2.1^6,^9.1^10,^14.0^2,^7.0^15,^20]tritriaconta-2,4,6(33),8,10(32),11,13,15(20),16,18,23-undecaen-3-yl]acetic acid] is 7.13. Take `Cc1ccc2c(c1)-c1cccc(c1)-c1cc3nc(C)c([C@H](OC(C)(C)C)C(=O)O)c(n3n1)N1CCC(C)(CC1)OCC=C[C@H](C)O2` [Example 59, (2S)-2-(tert-Butoxy)-2-[(22S)-4,17,22,27-tetramethyl-21,26-dioxa-1,5,7,8-tetraazahexacyclo[25.2.2.1^6,^9.1^10,^14.0^2,^7.0^15,^20]tritriaconta-2,4,6(33),8,10(32),11,13,15(20),16,18,23-undecaen-3-yl]acetic acid]: the pEC50 was 8.10.
